Reference: patent publication US12539273B2, “External nano liniment for gout and preparation method thereof” (priority 2021, dated 2026)
Read-outs that look alike come from different tables or passages of the source.

Tests used:
[1] = system: patients with gout; test: Preliminary human trial of preparation: crystal dissolution of gout crystals; assay type: in vivo
Experimental: The prepared nano liniment was applied to some patients with gout on trial. The gout treatment effect was obvious. The local application dosage was far below the dosage of the same oral medicine. The total dosage was safe.
Method of application: the nano liniment was applied to the gout parts (most foot joints, some hand joints or other parts) twice a day (every morning and evening), 1 ml of the corresponding nano liniment was applied every time, the gout (crystal) parts were photographed at different points in time before and after the nano liniment was applied, and the blood uric acid concentration (i.e. the uric acid value under fasting) of some patients with obvious crystal dissolution and lump elimination was also determined as a reference.

[2] = cited from earlier work; for cardiovascular and cerebrovascular and all-cause mortality: oral administration, statistic average period of 1 year

OCc1ccc(O[C@@H]2O[C@H](CO)[C@@H](O)[C@H](O)[C@H]2O)cc1 [4-hydroxymethyl phenyl-beta-D-glucopyranoside]
analgesic effect ([1]; finding of the study, gout): good analgesic effect
gout treatment effect ([1]; patients with gout on trial): good treatment effect on gout

Oc1ncnc2[nH]ncc12 [Allopurinol]
cardiovascular and cerebrovascular and all-cause mortality [2]: mortality reaches up to 3.3%).
cardiovascular and cerebrovascular and all-cause mortality ([2]; listed as allopurinol): 3.3%

Cc1nc(-c2ccc(OCC(C)C)c(C#N)c2)sc1C(=O)O [Febuxostat]
cardiovascular and cerebrovascular and all-cause mortality [2]: reaches up to 4.1%).
cardiovascular and cerebrovascular and all-cause mortality ([2]; listed as febuxostat): 4.1%

N#Cc1cc(-c2n[nH]c(-c3ccncc3)n2)ccn1 [Topiroxostat]
Side effects ([2]; oral tablet, marketed gout medicine): effect on the liver and bile.
